Values quoted from earlier work, collected in patent US6887894B2, “Use of lipoic acid for improving the bioavailability of mineral salts” (BASF Aktiengesellschaft, priority 2000, dated 2005).

How the values were obtained:
[1] = in vivo; cited from earlier work
[2] = in vivo; cited from earlier work; remark: listed apart in the source
[3] = growing rats, suboptimal Zn supply, 1% citric acid added to phytic-acid-rich corn-germ-based diets; cited from earlier work
[4] = pigs; cited from earlier work
[5] = in vivo; cited from earlier work; remark: listed apart in the source

O=C1O[C@H]([C@@H](O)CO)C(O)=C1O [Ascorbic acid]
effect on bioavailability of dietary zinc [1]: does not change | effect on bioavailability of inorganic iron [2]: increases

O=C(O)CC(O)(CC(=O)O)C(=O)O [citric acid]
Zn status (plasma Zn concentration, alkaline phosphatase activity, metallothioneine concentration in the jejunum) [3]: moderate improvement | effect on Zn utilization [4]: positive effects

[Cl-].[Cl-].[Zn+2] [ZnCl2]
bioavailability of Zn2+ from organic or inorganic sources [5]: roughly comparable
